# Calls of active or inactive are those of the source. The calls are words filed in the database; no cut-off is given here.
# What was measured:
# [1] = Inhibition of AAC(6')-1b (unknown origin) expressed in Escherichia coli TOP10 assessed as reduction in acetylation of kanamycin A in presence of acetyl CoA by DTNB based microplate reader analysis
# [2] = Inhibition of AAC(6')-1b (unknown origin) expressed in Escherichia coli TOP10 assessed as reduction in acetylation of amikacin in presence of acetyl CoA by DTNB based microplate reader analysis
# [3] = Uncompetitive inhibition of AAC(6')-1b (unknown origin) expressed in Escherichia coli TOP10 assessed as reduction in acetylation of kanamycin A in presence of varying acetyl CoA by DTNB based microplate reader analysis
# [4] = Mixed-noncompetitive inhibition of AAC(6')-1b (unknown origin) expressed in Escherichia coli TOP10 assessed as reduction in acetylation of kanamycin A in presence of varying kanamycin A and in presence of fixed acetyl CoA level by DTNB based microplate reader analysis
# Klebsiella pneumoniae = assay: Inhibition of AAC(6')-1b in amikacin-resistant Klebsiella pneumoniae harboring AAC(6')-1b assessed as growth inhibition in presence of amikacin
# Acinetobacter baumannii [5] = assay: Inhibition of AAC(6')-1b in amikacin-resistant Acinetobacter baumannii A155 harboring AAC(6')-1b assessed as growth inhibition at 50 uM in presence of 8 ug/ml amikacin
# Acinetobacter baumannii [6] = assay: Inhibition of AAC(6')-1b in amikacin-resistant Acinetobacter baumannii A155 harboring AAC(6')-1b assessed as growth inhibition at 100 uM in presence of 6 ug/ml amikacin
smiles,measurement,setting,value
NCCc1cccc(CN2CCC(O)(CN3CCCCC3)C2)c1 (racemic),IC50,[1],39.7 µM
same,IC50,[2],34.9 µM
same,inhibition,[3],Active
same,inhibition,[4],Active
same,growth inhibition (GI),Klebsiella pneumoniae,inactive
same,inhibition,Acinetobacter baumannii [5],Active
same,inhibition,Acinetobacter baumannii [6],Active
